The text below walks through data of paper PMC11026318, “Radiolabeled 15-mer peptide internalization is mediated by megalin (LRP2 receptor) in a CRISPR/Cas9-based LRP2 knockout human kidney cell model” (EJNMMI Radiopharmacy and Chemistry, 2024).

Data set [1] deals with vascular endothelial growth factor (VEGF) receptor. The conditions noted are these: in both in vitro and in vivo studies; ref Basile et al. [2011]; cited from earlier work.
Data set [2] deals with HK2 cells (parent, partial KO, LRP2 KO). Description: Viability assay with gentamicin at cytotoxic concentration (CellTiter 96 AQueous One). The class given is cell-based, human. The conditions noted are these: gentamicin 6 mg/mL, 48 h. The procedure: The cells were seeded in a 96-well plate (10^4 cells per well) 24 h prior to the experiment. The cells treated with gentamicin at cytotoxic concentration (6 mg/mL) were incubated in parallel with the controls in standard culture medium (representing 100% cell viability). The cells cultivated with 10% DMSO in culture medium represent 0% cell viability, which was measured after 48 h using the CellTiter 96® AQueous One Solution Cell Proliferation Assay (Promega) according to the manufacturer’s protocol. Absorbance was detected using a spectrophotometric plate reader (TECAN Infinite M200).

Data set [3] deals with T1, megalin (LRP2 receptor) in HK2 cells (Homo sapiens, UniProt P98164).
T1 construct: a human kidney cell line with high endogenous megalin expression; host or cells: HK2 human kidney epithelial cells (parent), compared with CRISPR/Cas9 LRP2 KO derivatives
T1 sequence (P98164 26-4655): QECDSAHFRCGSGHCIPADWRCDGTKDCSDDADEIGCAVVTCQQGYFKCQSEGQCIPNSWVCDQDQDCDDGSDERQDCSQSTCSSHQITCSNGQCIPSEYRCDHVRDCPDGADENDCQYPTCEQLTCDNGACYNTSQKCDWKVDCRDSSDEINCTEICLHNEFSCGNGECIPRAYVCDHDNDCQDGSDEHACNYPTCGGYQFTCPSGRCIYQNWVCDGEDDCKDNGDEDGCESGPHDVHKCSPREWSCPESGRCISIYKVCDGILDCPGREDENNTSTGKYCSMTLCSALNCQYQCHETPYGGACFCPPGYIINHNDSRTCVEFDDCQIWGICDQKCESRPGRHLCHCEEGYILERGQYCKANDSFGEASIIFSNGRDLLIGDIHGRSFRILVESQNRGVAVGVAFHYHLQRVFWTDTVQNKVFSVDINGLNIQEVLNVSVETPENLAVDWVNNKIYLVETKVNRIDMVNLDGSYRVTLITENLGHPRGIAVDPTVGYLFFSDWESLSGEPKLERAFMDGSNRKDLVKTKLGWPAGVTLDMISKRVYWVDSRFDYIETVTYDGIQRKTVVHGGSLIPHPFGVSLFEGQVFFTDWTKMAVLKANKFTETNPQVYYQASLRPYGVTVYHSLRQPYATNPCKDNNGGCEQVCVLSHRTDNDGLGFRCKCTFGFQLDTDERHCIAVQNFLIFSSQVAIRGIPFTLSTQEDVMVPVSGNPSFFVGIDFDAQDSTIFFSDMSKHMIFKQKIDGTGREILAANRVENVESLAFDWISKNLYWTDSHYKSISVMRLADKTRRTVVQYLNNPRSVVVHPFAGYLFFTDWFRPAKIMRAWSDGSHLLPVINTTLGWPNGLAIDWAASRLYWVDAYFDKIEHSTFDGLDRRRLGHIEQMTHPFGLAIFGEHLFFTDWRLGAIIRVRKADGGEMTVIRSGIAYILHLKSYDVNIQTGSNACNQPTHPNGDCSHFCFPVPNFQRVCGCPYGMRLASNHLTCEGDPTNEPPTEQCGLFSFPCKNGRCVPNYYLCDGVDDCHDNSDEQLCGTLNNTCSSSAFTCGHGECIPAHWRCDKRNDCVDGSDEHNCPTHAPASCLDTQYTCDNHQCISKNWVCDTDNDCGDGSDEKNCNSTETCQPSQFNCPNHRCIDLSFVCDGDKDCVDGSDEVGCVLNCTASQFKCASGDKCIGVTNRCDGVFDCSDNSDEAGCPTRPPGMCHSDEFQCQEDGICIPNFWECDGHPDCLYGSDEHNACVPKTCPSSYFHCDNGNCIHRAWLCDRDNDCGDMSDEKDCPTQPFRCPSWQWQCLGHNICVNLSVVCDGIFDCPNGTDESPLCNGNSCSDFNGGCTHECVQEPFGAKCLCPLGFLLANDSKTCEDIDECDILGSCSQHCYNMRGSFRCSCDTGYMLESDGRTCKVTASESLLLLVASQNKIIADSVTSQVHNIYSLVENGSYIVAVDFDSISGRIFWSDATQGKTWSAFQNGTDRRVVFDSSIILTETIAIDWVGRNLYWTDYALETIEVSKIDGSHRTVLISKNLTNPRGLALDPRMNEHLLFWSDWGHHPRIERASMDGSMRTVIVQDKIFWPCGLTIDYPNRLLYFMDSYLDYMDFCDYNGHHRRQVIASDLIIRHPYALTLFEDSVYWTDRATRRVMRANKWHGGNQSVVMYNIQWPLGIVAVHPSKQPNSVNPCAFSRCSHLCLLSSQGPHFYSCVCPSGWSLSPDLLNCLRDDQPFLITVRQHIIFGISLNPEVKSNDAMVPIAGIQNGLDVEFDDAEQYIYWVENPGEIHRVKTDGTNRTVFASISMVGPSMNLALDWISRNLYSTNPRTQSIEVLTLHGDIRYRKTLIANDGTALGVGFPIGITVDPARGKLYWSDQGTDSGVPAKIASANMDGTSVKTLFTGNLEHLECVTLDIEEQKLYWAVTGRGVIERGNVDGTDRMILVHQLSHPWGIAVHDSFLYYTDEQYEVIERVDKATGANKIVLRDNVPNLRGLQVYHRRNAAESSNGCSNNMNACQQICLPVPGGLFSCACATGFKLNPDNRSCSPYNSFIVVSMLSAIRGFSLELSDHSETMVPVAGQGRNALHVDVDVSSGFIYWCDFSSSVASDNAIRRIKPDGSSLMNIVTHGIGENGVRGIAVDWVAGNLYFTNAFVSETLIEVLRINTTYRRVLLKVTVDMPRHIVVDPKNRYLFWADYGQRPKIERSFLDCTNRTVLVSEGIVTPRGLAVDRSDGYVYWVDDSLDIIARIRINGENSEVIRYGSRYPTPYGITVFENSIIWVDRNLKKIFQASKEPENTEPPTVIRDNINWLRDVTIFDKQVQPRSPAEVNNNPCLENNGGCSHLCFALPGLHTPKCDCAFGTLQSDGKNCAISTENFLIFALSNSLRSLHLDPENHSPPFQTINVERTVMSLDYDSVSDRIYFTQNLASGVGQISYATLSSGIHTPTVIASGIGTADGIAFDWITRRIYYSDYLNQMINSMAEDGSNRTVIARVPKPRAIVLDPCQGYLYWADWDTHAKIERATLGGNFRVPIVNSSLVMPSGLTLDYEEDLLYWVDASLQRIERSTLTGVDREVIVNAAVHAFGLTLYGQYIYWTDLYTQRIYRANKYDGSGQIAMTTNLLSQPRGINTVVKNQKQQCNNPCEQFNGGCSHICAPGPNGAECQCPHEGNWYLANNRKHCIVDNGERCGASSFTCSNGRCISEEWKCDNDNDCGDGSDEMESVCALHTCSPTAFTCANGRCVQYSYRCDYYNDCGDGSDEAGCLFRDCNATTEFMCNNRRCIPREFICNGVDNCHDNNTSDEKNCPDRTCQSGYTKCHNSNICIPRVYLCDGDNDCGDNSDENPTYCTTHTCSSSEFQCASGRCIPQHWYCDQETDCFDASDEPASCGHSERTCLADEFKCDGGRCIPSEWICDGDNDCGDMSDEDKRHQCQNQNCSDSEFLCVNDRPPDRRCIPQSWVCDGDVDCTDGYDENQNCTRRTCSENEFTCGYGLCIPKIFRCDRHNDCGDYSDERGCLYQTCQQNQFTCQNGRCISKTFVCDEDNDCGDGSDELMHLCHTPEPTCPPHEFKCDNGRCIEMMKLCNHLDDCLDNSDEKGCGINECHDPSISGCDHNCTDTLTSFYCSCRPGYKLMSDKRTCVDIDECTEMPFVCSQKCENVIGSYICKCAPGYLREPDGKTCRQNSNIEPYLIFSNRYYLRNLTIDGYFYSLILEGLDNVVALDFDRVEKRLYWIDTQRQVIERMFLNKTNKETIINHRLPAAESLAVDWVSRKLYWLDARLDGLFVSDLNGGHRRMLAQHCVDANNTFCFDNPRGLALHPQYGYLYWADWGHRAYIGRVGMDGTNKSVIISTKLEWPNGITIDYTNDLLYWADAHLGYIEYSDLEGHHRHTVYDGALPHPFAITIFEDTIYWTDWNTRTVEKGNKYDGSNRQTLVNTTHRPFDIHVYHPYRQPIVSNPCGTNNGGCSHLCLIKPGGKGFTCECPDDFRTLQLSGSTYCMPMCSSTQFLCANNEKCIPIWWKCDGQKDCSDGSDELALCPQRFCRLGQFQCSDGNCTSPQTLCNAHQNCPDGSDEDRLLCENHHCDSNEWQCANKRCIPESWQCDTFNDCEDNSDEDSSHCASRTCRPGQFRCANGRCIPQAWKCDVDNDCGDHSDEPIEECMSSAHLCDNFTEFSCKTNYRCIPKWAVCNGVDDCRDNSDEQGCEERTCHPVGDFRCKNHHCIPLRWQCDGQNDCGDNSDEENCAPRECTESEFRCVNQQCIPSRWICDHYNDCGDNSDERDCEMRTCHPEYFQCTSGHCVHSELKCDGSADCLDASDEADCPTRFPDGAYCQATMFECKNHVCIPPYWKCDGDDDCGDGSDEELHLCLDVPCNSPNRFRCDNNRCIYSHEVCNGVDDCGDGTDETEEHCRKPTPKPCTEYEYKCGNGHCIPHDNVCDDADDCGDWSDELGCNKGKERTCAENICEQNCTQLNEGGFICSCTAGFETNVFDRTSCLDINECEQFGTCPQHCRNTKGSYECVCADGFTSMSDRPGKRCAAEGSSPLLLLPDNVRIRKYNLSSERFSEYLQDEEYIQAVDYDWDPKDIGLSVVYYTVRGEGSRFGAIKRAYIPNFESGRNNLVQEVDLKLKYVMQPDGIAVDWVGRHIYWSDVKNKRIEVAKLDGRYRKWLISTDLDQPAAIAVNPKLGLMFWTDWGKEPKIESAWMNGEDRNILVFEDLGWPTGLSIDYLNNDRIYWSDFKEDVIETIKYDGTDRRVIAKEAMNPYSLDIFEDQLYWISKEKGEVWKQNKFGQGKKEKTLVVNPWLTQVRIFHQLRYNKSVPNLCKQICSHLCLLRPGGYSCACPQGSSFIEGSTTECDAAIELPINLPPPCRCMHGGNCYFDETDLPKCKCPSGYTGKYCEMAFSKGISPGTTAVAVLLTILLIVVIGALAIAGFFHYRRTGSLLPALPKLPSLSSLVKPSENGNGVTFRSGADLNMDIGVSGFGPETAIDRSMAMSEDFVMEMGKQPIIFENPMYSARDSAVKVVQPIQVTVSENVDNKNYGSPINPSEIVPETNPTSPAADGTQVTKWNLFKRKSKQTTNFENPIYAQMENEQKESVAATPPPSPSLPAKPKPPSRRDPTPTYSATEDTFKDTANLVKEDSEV
The data set is described as follows: FITC-albumin accumulation studies in parent HK2 vs LRP2 knockout cells. Type of data set: cell-based. Particulars: 24 µg/mL, 2 h; fluorescence of cell lysates related to total protein. The procedure:
The CRISPR/cas9 gene editing technique was implemented to generate LRP2 KO HK2 cells (Fig. 1) employing designed sgRNA sequences (Table 1). HK2 cells were seeded on 24-well plate (10^5 cells/well). Cells were transfected by sgRNA (720 ng per reaction) and TrueCut™ Cas9 Protein v2 (3 840 ng per reaction; Invitrogen) using Lipofectamine™ CRISPRMAX™ Cas9 Transfection Reagent (Invitrogen) according to the manufacturer’s instructions 24 h after seeding. The knockout reactions were repeated twice for each sgRNA. Each transfection was performed after 48 h of recovery. The final group of cells transfected sequentially six times was designated as LRP2 KO. A group of cells transfected only once with NPMY sgRNA but twice with TMD and PPPSPS sgRNAs, was designated as partial KO (Figs. 2A–E, 5A and B).
The accumulation studies of fluorescein isothiocyanate-labelled albumin (FITC-albumin, Merck) were performed in 24-well plates (10^5 cells per well). The cells were incubated with 24 µg/mL FITC-albumin, and Passive Lysis Buffer (Promega) was added to lyse the cells after 2 h treatment. The accumulated FITC-albumin was quantified by measuring the fluorescence intensity of cell lysates (Tecan Spark® multimode microplate reader). Fluorescence intensity was plotted against total protein concentration determined by the commercially available Pierce™ BCA Protein Assay Kit (ThermoFisher Scientific).

Regarding “Ac-KLTWMELYQLAYKGI-NH2 [15-mer, 15 amino acid anti-VEGFR peptide, custom synthesized according to a previously published structure (Basile et al. 2011)]”, the Antiangiogenic effects entry in data set [1] is reported as “potent antiangiogenic effects”. As to `CNC(C)C1CCC(N)C(OC2C(N)CC(N)C(OC3OCC(C)(O)C(NC)C3O)C2O)O1` (stereo not drawn) [gentamicin], in data set [2], the “Viability of partial KO or LRP2 KO cells after treatment, compared to HK2 parent cells” value is on record as “higher viability”. Regarding “fluorescein isothiocyanate-labelled albumin [FITC-albumin]”, the “FITC-albumin accumulation in KO cells vs parent HK2 cells” value in data set [3] is recorded as “Reduced FITC-albumin accumulation”.
